Data reported in the supplement of paper PMC10307832.

Tests used:
Assay in all cases: relative viability (nuclei count vs DMSO), 5 days (fraction); higher = more cells survive
Shikonin + Palbociclib = compound: CC(C)=CC[C@@H](O)C1=CC(=O)c2c(O)ccc(O)c2C1=O [Shikonin] + CC(=O)c1c(C)c2cnc(Nc3ccc(N4CCNCC4)cn3)nc2n(C2CCCC2)c1=O [Palbociclib] (partner 0.5 µM)
In short: (§1)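 Lung cancer cell lines in 1536-well plates got either a single drug or a fixed anchor-drug dose together with five library-drug doses (not always all listed) in √10 steps, by pin tool, on the day after seeding. Nuclei were counted after 5 days, and relative viability is the treated-to-vehicle ratio of nuclei counts. Values are medians of duplicate plates.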

Shikonin + Navitoclax = compound: CC(C)=CC[C@@H](O)C1=CC(=O)c2c(O)ccc(O)c2C1=O [Shikonin] + CC1(C)CCC(c2ccc(Cl)cc2)=C(CN2CCN(c3ccc(C(=O)NS(=O)(=O)c4ccc(N[C@H](CCN5CCOCC5)CSc5ccccc5)c(S(=O)(=O)C(F)(F)F)c4)cc3)CC2)C1 [Navitoclax] (partner 0.5 µM)
In short: as §1

[1] = compound: CC(C)N(CCCNC(=O)Nc1ccc(C(C)(C)C)cc1)C[C@H]1O[C@@H](n2ccc3c(N)ncnc32)[C@H](O)[C@@H]1O + C[C@@H](Oc1cc(-c2cnn(C3CCNCC3)c2)cnc1N)c1c(Cl)ccc(F)c1Cl [Crizotinib] (partner 1 µM)
In short: as §1

[2] = compound: CC(C)N(CCCNC(=O)Nc1ccc(C(C)(C)C)cc1)C[C@H]1O[C@@H](n2ccc3c(N)ncnc32)[C@H](O)[C@@H]1O + C[C@]1(O)C[C@@H](c2nc(-c3ccc4ccc(-c5ccccc5)nc4c3)c3c(N)nccn32)C1 [Linsitinib] (partner 1 µM)
In short: as §1

Cell Line	relative viability (Shikonin + Palbociclib; first compound 0.01 µM)	relative viability (Shikonin + Palbociclib; first compound 0.1 µM)	relative viability (Shikonin + Palbociclib; first compound 0.3162 µM)	relative viability (Shikonin + Palbociclib; first compound 1 µM)	relative viability (Shikonin + Navitoclax; first compound 0.01 µM)	relative viability (Shikonin + Navitoclax; first compound 0.1 µM)	relative viability (Shikonin + Navitoclax; first compound 0.3162 µM)	relative viability (Shikonin + Navitoclax; first compound 1 µM)	relative viability ([1]; first compound 0.08 µM)	relative viability ([1]; first compound 0.8 µM)	relative viability ([1]; first compound 2.53 µM)	relative viability ([1]; first compound 8 µM)	relative viability ([2]; first compound 0.08 µM)	relative viability ([2]; first compound 0.8 µM)	relative viability ([2]; first compound 2.53 µM)	relative viability ([2]; first compound 8 µM)	relative viability ([1]; first compound 0.253 µM)	relative viability ([2]; first compound 0.253 µM)
NCI-H2228	0.812	0.939	0.754	0.729	0.799	0.846	0.911	0.895	0.586	0.468	0.543	0.44	0.817	0.665	0.625	0.554		
NCI-H2347	0.432	0.424	0.414	0.397	0.775	0.73	0.781	0.798	0.752	0.582	0.709	0.738	1	0.868	1.02	0.97	0.497	0.95
NCI-H2405	0.527	0.569	0.558	0.509	0.962	0.922	1.16	0.837	0.875	0.782	0.865	0.856	0.901	0.919	0.966	0.945	0.822	
NCI-H3122	0.228	0.215	0.178	0.176	1.03	1.09	1.05	1.09	0.349	0.285	0.3	0.277	1.03	0.919	1.01	0.938	0.299	0.989
PC-3 [JPC-3]	0.59	0.589	0.538	0.552	0.758	0.848	0.884	0.786	0.991	0.885	0.977	0.917	0.97	0.876	0.919	0.897	0.994	0.94
PC-14	0.397	0.535	0.524	0.509	1.05	1.1	1.23	1.02	0.907	0.97	0.943	0.723	0.962	0.979	0.908	0.857	0.881	0.969
RERF-LC-KJ	1.09	1.13	1.1	1.08	0.835	0.996	0.758	1.11	0.821	0.845	0.789	0.779	0.85	0.895	0.897	0.794	0.85	0.93
SK-LU-1	0.379	0.404	0.437	0.373	0.966	0.972	1.08	0.589	1.03	0.969	1.08	0.875	0.94	1.17	1.41	0.953	0.931	1.33
SK-MES-1	0.317	0.3	0.295	0.288	1.25	1.19	1.29	1.29	0.991	1.01	0.997	0.956	1.06	1.11	1.09	1.06	1.05	1.17
